# Values of other authors, collected in US20210145036A1 (priority 2018, published 2021).
# Conditions: in vivo
substance,measurement,value
"(1S,5S)-2,6,6-Trimethylbicyclo[3.1.1]hept-2-ene ((−)-α-Pinene)",human pulmonary uptake,60%
